Values quoted from earlier work in patent US20020177614A1, “Methods for treating nuerodegenerative diseases including alzheimer's” (priority 2001, published 2002).

System: Diphtheria and Pseudomonas toxins
Details: several bacterial ADP-ribosylating toxins, including Diphtheria and Pseudomonas toxins

NC(=O)c1cccnc1 [nicotinamide]
effect on bacterial ADP-ribosylating toxins: prevent or reverse the effects
